Laboratory results reported in patent US9394291B2, “Benzoxazinone amides as mineralocorticoid receptor modulators” (AstraZeneca AB, priority 2014, dated 2016).
Read-outs that look alike come from different tables or passages of the source.

Legend:
human MR LBD [1] = molecular target: T1, human MR LBD (Homo sapiens (Human), UniProt P08235); test: Mineralocorticoid Binding, Test A1 (SPA beads, 3H-aldosterone displacement); conditions: displacement of 5 nM 3H-aldosterone, MBP-MR LBD/P23 lysate
[2] = molecular target: T2, MR (UAS-MR-bla HEK293 cells) (Homo sapiens, UniProt P08235); test: cell-based
T2 sequence (P08235 whole entry, looked up): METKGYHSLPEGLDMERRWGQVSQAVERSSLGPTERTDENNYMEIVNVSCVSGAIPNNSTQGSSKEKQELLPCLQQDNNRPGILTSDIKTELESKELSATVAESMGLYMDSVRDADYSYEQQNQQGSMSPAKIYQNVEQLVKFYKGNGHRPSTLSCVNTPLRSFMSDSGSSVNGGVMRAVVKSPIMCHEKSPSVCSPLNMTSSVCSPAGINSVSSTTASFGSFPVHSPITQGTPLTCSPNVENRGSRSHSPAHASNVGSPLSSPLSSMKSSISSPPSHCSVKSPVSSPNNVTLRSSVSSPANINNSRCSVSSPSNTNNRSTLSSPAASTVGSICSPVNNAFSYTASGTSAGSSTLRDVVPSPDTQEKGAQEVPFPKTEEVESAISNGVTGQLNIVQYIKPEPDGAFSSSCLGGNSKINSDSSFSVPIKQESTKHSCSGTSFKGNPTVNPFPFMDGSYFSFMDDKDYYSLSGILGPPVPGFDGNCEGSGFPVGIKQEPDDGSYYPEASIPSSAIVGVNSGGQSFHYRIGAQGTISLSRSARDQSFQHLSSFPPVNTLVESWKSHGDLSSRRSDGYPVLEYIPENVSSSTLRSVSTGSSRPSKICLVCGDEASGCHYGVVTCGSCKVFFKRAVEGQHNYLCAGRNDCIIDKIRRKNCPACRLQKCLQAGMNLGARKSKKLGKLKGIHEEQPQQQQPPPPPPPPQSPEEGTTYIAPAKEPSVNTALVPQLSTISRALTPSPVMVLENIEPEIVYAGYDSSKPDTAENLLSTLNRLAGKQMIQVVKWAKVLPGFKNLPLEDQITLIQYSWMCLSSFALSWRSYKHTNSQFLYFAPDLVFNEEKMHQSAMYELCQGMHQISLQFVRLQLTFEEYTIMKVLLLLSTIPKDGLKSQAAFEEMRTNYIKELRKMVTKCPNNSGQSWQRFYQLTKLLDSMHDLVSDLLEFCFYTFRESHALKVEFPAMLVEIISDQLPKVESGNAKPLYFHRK

[3] = molecular target: T2, MR (UAS-MR-bla HEK293 cells); test: Mineralocorticoid Cellular Reporter Gene Assay, Test B1 (0.25 nM aldosterone)
human MR LBD [4] = molecular target: T1, human MR LBD; conditions: read-out: Test A2 IC50; displacement of 5 nM 3H-aldosterone, MBP-MR LBD/P23 lysate, Imaging beads
Procedure: In order to identify binding to the human MR LBD a scintillation proximity assay (SPA) was adapted to the 384-well format. The MR-LBD (amino acids T729-K985) was expressed as N-terminal fusion with maltose binding protein in Hi5 insect cells by co-infection with recombinant MBP-MR LBD and P23 baculoviruses and crude protein lysate was used in the assay.
Briefly, in Test A1 the assay was run in 384 well format in 10 mM Tris-HCl, pH 7.5, 0.5 mM EDTA 20 mM NaMoO4, 0.1 mM DTT and 10% glycerol at rt. Compounds were tested in a 7 (Test A1) or 10 (Test A2) concentration response curve ranging from 10 nM to 10 μM (Test A1) or 1 nM to 37 μM (Test A2). Compounds were spotted at the bottom of a well of a 384-well PE Opti-Plate to yield final DMSO concentrations in the assay of 2%. Pre-made MBP-MR/P23 lysate: ^3H-aldosterone mix (final assay concentration 7 μg/mL MBP-MR LBD/P23 lysate; 5 nM aldosterone) was added onto the top of the spotted compound and preincubated for 1 h at RT. […] The inhibition of the scintillation signal by displacement of the bound ^3H-aldosterone by test compounds is measured by scintillation counting using a Microbeta Trilux (Wallac) (Test A1) or a by CCD camera detection using a LEADseeker (PerkinElmer) (Test A2).

T1 sequence (P08235 729-984 limits assumed): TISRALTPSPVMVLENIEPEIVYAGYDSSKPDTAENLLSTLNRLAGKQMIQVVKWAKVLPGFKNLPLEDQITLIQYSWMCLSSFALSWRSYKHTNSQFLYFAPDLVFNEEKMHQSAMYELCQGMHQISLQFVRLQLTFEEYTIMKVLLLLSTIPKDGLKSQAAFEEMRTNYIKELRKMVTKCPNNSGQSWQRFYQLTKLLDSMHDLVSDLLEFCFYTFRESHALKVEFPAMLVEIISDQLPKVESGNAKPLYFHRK

Question: What does the source list for NC(=O)CC1COc2ccccc2N1C(=O)c1ccc2c(c1)NC(=O)CO2 (stereo not shown) [Example 1]?
Answer: IC50 (human MR LBD [1]): 1400 nM; IC50 [2]: 620 nM; IC50 [3]: 2100 nM; IC50 (human MR LBD [4]): 2900 nM

Question: How did the inhibition at 100 µM ([3]; HEK293, read-out: Test B1, % at 100 μM) turn out when CNC(=O)C[C@@H]1COc2cc(F)ccc2N1C(=O)c1ccc2c(c1)NC(=O)CO2 [Example 4b, 2-{(3R)-7-Fluoro-4-[(3-oxo-3,4-dihydro-2H-1,4-benzoxazin-6-yl)carbonyl]-3,4-dihydro-2H-1,4-benzoxazin-3-yl}-N-methylacetamide] was run?
Answer: 35%

Question: For NC(=O)C[C@H]1COc2cc(Br)ccc2N1C(=O)c1ccc2c(c1)NC(=O)CO2 [Example 7, 2-{(3S)-7-Bromo-4-[(3-oxo-3,4-dihydro-2H-1,4-benzoxazin-6-yl)carbonyl]-3,4-dihydro-2H-1,4-benzoxazin-3-yl}acetamide], which IC50 (human MR LBD [1]) is on record?
Answer: 9.5 nM

Question: And the IC50 [3]?
Answer: 45 nM
